Laboratory results taken from patent US10870651B2, “Inhibitors of cyclin-dependent kinase 7 (CDK7)” (Dana-Farber Cancer Institute, Inc., priority 2014, dated 2020).

target: CDK7 (Homo sapiens (Human), UniProt P50613); assay: Inhibition of kinase activity, CDK7; type: biochemical; conditions: co-factors cyclin H and MNAT1
Method: Compounds of the invention were assayed for activity against a variety of different kinases. Exemplary results are presented as calculated IC50 values (Table A1 & A2). In Table A1 and A2 “A” represents a calculated IC50 value of less than 100 nM; “B” represents a calculated IC50 value of greater than or equal to 100 nM and less than 1 μM; and “C” represents a calculated IC50 value of 1 μM or greater. The co-factors used for each kinase in the assays were as follows: CDK7: cyclin H and MNAT1; CDK2: cyclin A; CDK9: cyclin K.

Sequence of CDK7 (P50613 whole entry): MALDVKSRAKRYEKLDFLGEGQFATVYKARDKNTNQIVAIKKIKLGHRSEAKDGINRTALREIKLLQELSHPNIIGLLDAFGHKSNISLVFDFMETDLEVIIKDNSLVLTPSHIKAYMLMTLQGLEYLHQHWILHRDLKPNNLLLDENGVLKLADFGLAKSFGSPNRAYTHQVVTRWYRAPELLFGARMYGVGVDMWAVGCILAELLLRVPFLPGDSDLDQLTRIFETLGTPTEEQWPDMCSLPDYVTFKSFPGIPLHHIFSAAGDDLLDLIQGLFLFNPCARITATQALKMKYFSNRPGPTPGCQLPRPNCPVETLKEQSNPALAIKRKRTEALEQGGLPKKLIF
Sequence of CDK7 (P51946 whole entry partner): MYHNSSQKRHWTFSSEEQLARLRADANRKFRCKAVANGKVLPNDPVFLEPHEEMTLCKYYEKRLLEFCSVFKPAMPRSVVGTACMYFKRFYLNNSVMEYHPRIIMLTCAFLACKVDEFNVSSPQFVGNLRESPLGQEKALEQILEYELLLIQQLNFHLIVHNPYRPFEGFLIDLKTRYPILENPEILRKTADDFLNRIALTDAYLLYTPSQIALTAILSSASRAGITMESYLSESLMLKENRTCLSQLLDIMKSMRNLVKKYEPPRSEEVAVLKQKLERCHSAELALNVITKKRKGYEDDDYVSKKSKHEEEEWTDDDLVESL
Sequence of CDK7 (P51948 whole entry partner): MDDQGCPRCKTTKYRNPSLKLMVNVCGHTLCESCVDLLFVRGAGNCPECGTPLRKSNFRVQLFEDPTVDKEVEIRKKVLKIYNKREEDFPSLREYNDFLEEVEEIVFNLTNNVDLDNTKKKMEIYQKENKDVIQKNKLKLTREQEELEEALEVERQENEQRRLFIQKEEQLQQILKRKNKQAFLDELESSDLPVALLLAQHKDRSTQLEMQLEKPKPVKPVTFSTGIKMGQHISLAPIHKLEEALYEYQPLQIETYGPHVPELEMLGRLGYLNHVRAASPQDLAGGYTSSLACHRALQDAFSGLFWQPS

First: C=CC(=O)Nc1ccc(C(=O)Nc2n[nH]c3c2CN(C(=O)N[C@H](CN(C)C)c2ccccc2)C32CC2)cc1 [Compound 233, (S)-3′-(4-acrylamidobenzamido)-N-(2-(dimethylamino)-1-phenylethyl)-1′,4′-dihydro-5′H-spiro[cyclopropane-1,6′-pyrrolo[3,4-c]pyrazole]-5′-carboxamide]
Second: C=CC(=O)Nc1ccc(C(=O)Nc2n[nH]c3c2CN(C(=O)N[C@H](CN(C)C)c2ccccc2)C32CCCCC2)cc1 [Compound 236, (S)-3′-(4-acrylamidobenzamido)-N-(2-(dimethylamino)-1-phenylethyl)-1′,4′-dihydro-5′H-spiro(cyclohexane-1,6′-pyrrolo[3,4-c]pyrazole]-5′-carboxamide]
The IC50 of the first is lower: under 0.1 µM for the first, 0.1 to 1 µM for the second. The first is the more potent here.

C=CC(=O)N1CCC(Nc2n[nH]c3c2CN(C(=O)N[C@H](CN(C)C)c2ccccc2)C3(C)C)CC1 [Compound 231, (5)-3-((1-acryloylpiperidin-4-yl)amino)-N-(2-(dimethylamino)-1-phenylethyl)-6,6-dimethyl-4,6-dihydropyrrolo[3,4-c]pyrazole-5(1H)-carboxamide] and C=CC(=O)N1CCC(C(=O)Nc2n[nH]c3c2CN(C(=O)N[C@H](CN(C)C)c2ccccc2)C3(C)C)CC1 [Compound 123, (S)-3-(1-acryloylpiperidine-4-carboxamido)-N-(2-(dimethylamino)-1-phenylethyl)-6,6-dimethyl-4,6-dihydropyrrolo[3,4-c]pyrazole-5(1H)-carboxamide] cannot be ordered by IC50: under 0.1 µM for the first, under 0.1 µM for the second.

C=CC(=O)N1CCC[C@@H](C(=O)Nc2n[nH]c3c2CN(C(=O)N[C@H](CN(C)C)c2ccccc2)C3(C)C)C1 [Compound 113, 3-((R)-1-acryloylpiperidine-3-carboxamido)-N-((S)-2-(dimethylamino)-1-phenylethyl)-6,6-dimethyl-4,6-dihydropyrrolo[3,4-c]pyrazole-5(1H)-carboxamide] and C=CC(=O)N1CCC[C@H](C(=O)Nc2n[nH]c3c2CN(C(=O)N[C@H](CN(C)C)c2ccccc2)C3(C)C)C1 [Compound 114, 3-((S)-1-acryloylpiperidine-3-carboxamido)-N-((S)-2-(dimethylamino)-1-phenylethyl)-6,6-dimethyl-4,6-dihydropyrrolo[3,4-c]pyrazole-5(1H)-carboxamide] cannot be ordered by IC50: under 0.1 µM for the first, under 0.1 µM for the second.

First: C=CC(=O)Nc1ccc(C(=O)Nc2n[nH]c3c2CN(C(=O)N[C@H](CN(C)C)c2ccccc2)[C@H]3C(C)C)cc1 [Compound 235, (S)-3-(4-acrylamidobenzamido)-N-((S)-2-(dimethylamino)-1-phenylethyl)-6-isopropyl-4,6-dihydropyrrolo[3,4-c]pyrazole-5(1H)-carboxamide]
Second: C=CC(=O)Nc1ccc(C(=O)Nc2n[nH]c3c2CN(C(=O)N[C@H](CN(C)C)c2ccccc2)[C@@H]3C(C)C)cc1 [Compound 234, (R)-3-(4-acrylamidobenzamido)-N-((S)-2-(dimethylamino)-1-phenylethyl)-6-isopropyl-4,6-dihydropyrrolo[3,4-c]pyrazole-5(1H)-carboxamide]
The IC50 of the first is higher: at least 1 µM for the first, under 0.1 µM for the second. The second is the more potent here.

C=CC(=O)Nc1ccc(C(=O)Nc2cccc(Nc3n[nH]c4c3CN(C(=O)NC(C)CN(C)C)C4(C)C)c2)cc1 (centres unmarked) [Compound 108, 3-((3-(4-acrylamidobenzamido)phenyl)amino)-N-(1-(dimethylamino)propan-2-yl)-6,6-dimethyl-4,6-dihydropyrrolo[3,4-c]pyrazole-5(1H)-carboxamide] and C=CC(=O)Nc1cccc(C(=O)Nc2cccc(Nc3n[nH]c4c3CN(C(=O)N[C@H](CN(C)C)c3ccccc3)C4(C)C)c2)c1 [Compound 105, (S)-3-((3-(3-acrylamidobenzamido)phenyl)amino)-N-(2-(dimethylamino)-1-phenylethyl)-6,6-dimethyl-4,6-dihydropyrrolo[3,4-c]pyrazole-5(1H)-carboxamide] cannot be ordered by IC50: under 0.1 µM for the first, under 0.1 µM for the second.

C=CC(=O)Nc1ccc(C(=O)Nc2nn(C)c3c2CN(C(=O)N[C@H](CN(C)C)c2ccccc2)C3(C)C)c(OC)c1 [Compound 243, (S)-3-(4-acrylamido-2-methoxybenzamido)-N-(2-(dimethylamino)-1-phenylethyl)-1,6,6-trimethyl-4,6-dihydropyrrolo[3,4-c]pyrazole-5(1H)-carboxamide] and C=CC(=O)Nc1ccc(C(=O)Nc2c3c(nn2C)C(C)(C)N(C(=O)N[C@H](CN(C)C)c2ccccc2)C3)c(OC)c1 [Compound 244, (S)-3-(4-acrylamido-2-methoxybenzamido)-N-(2-(dimethylamino)-1-phenylethyl)-2,6,6-trimethyl-2,6-dihydropyrrolo[3,4-c]pyrazole-5(4H)-carboxamide] cannot be ordered by IC50: at least 1 µM for the first, at least 1 µM for the second.

C=CC(=O)Nc1ccc(C(=O)Nc2n[nH]c3c2CN(C(=O)N[C@H](CN(C)C)c2ccccc2)C3(C)C)cc1 [Compound 214, (S)-3-(4-acrylamidobenzamido)-N-(2-(dimethylamino)-1-phenylethyl)-6,6-dimethyl-4,6-dihydropyrrolo[3,4-c]pyrazole-5(1H)-carboxamide] and CCC(=O)Nc1ccc(C(=O)Nc2n[nH]c3c2CN(C(=O)N[C@H](CN(C)C)c2ccccc2)C3(C)C)cc1 [Compound 215, (S)-N-(2-(dimethylamino)-1-phenylethyl)-6,6-dimethyl-3-(4-propionamidobenzamido)-4,6-dihydropyrrolo[3,4-c]pyrazole-5(1H)-carboxamide] cannot be ordered by IC50: under 0.1 µM for the first, under 0.1 µM for the second.

First: C=CC(=O)Nc1ccc(Nc2n[nH]c3c2CN(C(=O)N[C@H](CN(C)C)c2ccccc2)C3(C)C)cc1 [Compound 111, (S)-3-((4-acrylamidophenyl)amino)-N-(2-(dimethylamino)-1-phenylethyl)-6,6-dimethyl-4,6-dihydropyrrolo[3,4-c]pyrazole-5(1H)-carboxamide]
Second: C=CC(=O)Nc1cccc(Nc2n[nH]c3c2CN(C(=O)N[C@H](CN(C)C)c2ccccc2)C3(C)C)c1 [Compound 110, (S)-3-((3-acrylamidophenyl)amino)-N-(2-(dimethylamino)-1-phenylethyl)-6,6-dimethyl-4,6-dihydropyrrolo[3,4-c]pyrazole-5(1H)-carboxamide]
The IC50 of the first is higher: 0.1 to 1 µM for the first, under 0.1 µM for the second.

C=CC(=O)Nc1ccc(C(=O)Nc2n[nH]c3c2CN(C(=O)N[C@H](CN(C)C)c2ccccc2)C3(C)C)cc1OC [Compound 217, (S)-3-(4-acrylamido-3-methoxybenzamido)-N-(2-(dimethylamino)-1-phenylethyl)-6,6-dimethyl-4,6-dihydropyrrolo[3,4-c]pyrazole-5(1H)-carboxamide] and C=CC(=O)Nc1ccc(C(=O)Nc2n[nH]c3c2CN(C(=O)N[C@H](CN(C)C)c2ccccc2)C3(C)C)c(OC)c1 [Compound 216, (S)-3-(4-acrylamido-2-methoxybenzamido)-N-(2-(dimethylamino)-1-phenylethyl)-6,6-dimethyl-4,6-dihydropyrrolo[3,4-c]pyrazole-5(1H)-carboxamide] cannot be ordered by IC50: under 0.1 µM for the first, under 0.1 µM for the second.

C=CC(=O)Nc1ccc(C(=O)Nc2n[nH]c3c2CN(C(=O)N[C@H](CN(C)C)c2ccccc2)[C@@H]3c2ccccc2)cc1 [Compound 237, (R)-3-(4-acrylamidobenzamido)-N-((S)-2-(dimethylamino)-1-phenylethyl)-6-phenyl-4,6-dihydropyrrolo[3,4-c]pyrazole-5(1H)-carboxamide] and C=CC(=O)Nc1ccc(C(=O)Nc2n[nH]c3c2CN(C(=O)N[C@H](CN(C)C)c2ccccc2)[C@H]3c2ccccc2)cc1 [Compound 239, (S)-3-(4-acrylamidobenzamido)-N-((S)-2-(dimethylamino)-1-phenylethyl)-6-phenyl-4,6-dihydropyrrolo[3,4-c]pyrazole-5(1H)-carboxamide] cannot be ordered by IC50: at least 1 µM for the first, at least 1 µM for the second.

C=CC(=O)Nc1ccc(C(=O)N2CCCC(Nc3n[nH]c4c3CN(C(=O)N[C@H](CN(C)C)c3ccccc3)C4(C)C)C2)cc1 (stereo partly drawn) [Compound 115, 3-((1-(4-acrylamidobenzoyl)piperidin-3-yl)amino)-N-((S)-2-(dimethylamino)-1-phenylethyl)-6,6-dimethyl-4,6-dihydropyrrolo[3,4-c]pyrazole-5(1H)-carboxamide] and C=CC(=O)Nc1ccc(C(=O)N2CCC(Nc3n[nH]c4c3CN(C(=O)N[C@H](CN(C)C)c3ccccc3)C4(C)C)CC2)cc1 [Compound 116, (S)-3-((1-(4-acrylamidobenzoyl)piperidin-4-yl)amino)-N-(2-(dimethylamino)-1-phenylethyl)-6,6-dimethyl-4,6-dihydropyrrolo[3,4-c]pyrazole-5(1H)-carboxamide] cannot be ordered by IC50: under 0.1 µM for the first, under 0.1 µM for the second.

First: C=CC(=O)Nc1cccc(C(=O)Nc2nn(C)c3c2CN(C(=O)N[C@H](CN(C)C)c2ccccc2)C3(C)C)c1 [Compound 241, (S)-3-(3-acrylamidobenzamido)-N-(2-(dimethylamino)-1-phenylethyl)-1,6,6-trimethyl-4,6-dihydropyrrolo[3,4-c]pyrazole-5(1H)-carboxamide]
Second: C=CC(=O)Nc1ccc(C(=O)Nc2nn(C)c3c2CN(C(=O)O[C@H](CN(C)C)c2ccccc2)C3(C)C)cc1 [Compound 246, (S)-2-(dimethylamino)-1-phenylethyl 3-(4-acrylamidobenzamido)-1,6,6-trimethyl-4,6-dihydropyrrolo[3,4-c]pyrazole-5(1H)-carboxylate]
The IC50 of the first is lower: under 0.1 µM for the first, 0.1 to 1 µM for the second. The first is the more potent here.

C=CC(=O)Nc1cccc(C(=O)Nc2ccc(Nc3n[nH]c4c3CN(C(=O)N[C@H](CN(C)C)c3ccccc3)C4(C)C)cc2)c1 [Compound 103, (S)-3-((4-(3-acrylamidobenzamido)phenyl)amino)-N-(2-(dimethylamino)-1-phenylethyl)-6,6-dimethyl-4,6-dihydropyrrolo[3,4-c]pyrazole-5(1H)-carboxamide] and C=CC(=O)Nc1ccc(C(=O)N[C@H]2CCC[C@@H](Nc3n[nH]c4c3CN(C(=O)N[C@H](CN(C)C)c3ccccc3)C4(C)C)C2)cc1 [Compound 117, 3-(((1R,3S)-3-(4-acrylamidobenzamido)cyclohexyl)amino)-N-((S)-2-(dimethylamino)-1-phenylethyl)-6,6-dimethyl-4,6-dihydropyrrolo[3,4-c]pyrazole-5(1H)-carboxamide] cannot be ordered by IC50: under 0.1 µM for the first, under 0.1 µM for the second.
